Results from patent US20250034170A1, “SMALL MOLECULE MODULATORS OF GLUCOCEREBROSIDASE ACTIVITY AND USES THEREOF” (Vanqua Bio, Inc., priority 2021, published 2025).

The compounds below were run against T1, GCase (Homo sapiens, UniProt P04062) (assay: activation of GCase in a live cell PFB assay in HELA cells). Settings: activation of GCase, EC50 ranges.
T1 construct: endogenous in cells; host or cells: HeLa cells
T1 sequence (P04062 40-536): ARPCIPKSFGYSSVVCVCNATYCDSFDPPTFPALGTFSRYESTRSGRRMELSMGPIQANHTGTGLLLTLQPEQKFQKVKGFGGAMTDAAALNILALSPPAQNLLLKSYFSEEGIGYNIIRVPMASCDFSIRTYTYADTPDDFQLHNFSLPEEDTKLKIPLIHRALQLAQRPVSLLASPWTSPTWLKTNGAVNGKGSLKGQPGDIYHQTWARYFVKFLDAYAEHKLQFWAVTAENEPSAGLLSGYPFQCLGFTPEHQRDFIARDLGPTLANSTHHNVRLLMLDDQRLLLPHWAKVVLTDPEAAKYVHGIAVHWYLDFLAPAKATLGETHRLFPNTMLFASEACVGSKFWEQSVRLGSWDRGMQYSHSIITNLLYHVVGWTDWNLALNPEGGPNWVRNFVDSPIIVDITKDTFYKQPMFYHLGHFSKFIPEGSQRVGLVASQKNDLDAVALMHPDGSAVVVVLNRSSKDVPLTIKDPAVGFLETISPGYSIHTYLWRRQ
Type: cell-based
Protocol: Exemplary compounds were evaluated for activation of GCase in a live cell PFB assay in HELA cells (essentially as described in Ysselstein et al., “LRRK2 kinase activity regulates lysosomal glucocerebrosidase in neurons derived from Parkinson's disease patients” Nature Communications (2019) 10:5570). […] EC50 ranges: A: <10 μM; B: >10-50 μM; C: >50-100 μM; D: >100 μM.

| SMILES | EC50 |
| --- | --- |
| FC(F)Cn1ncc2ncc(N3CCC4(CC3)CC(COc3cccnc3C(F)(F)F)C4)nc21 [Compound 89, 7-[1-(2,2-difluoroethyl)-1H-pyrazolo[3,4-b]pyrazin-6-yl]-2-({[2-(trifluoromethyl)pyridin-3-yl]oxy}methyl)-7-azaspiro[3.5]nonane] | 10 to 50 µM |
| O=C1CC2(CCCN(c3cnc4cnn(CC(F)F)c4n3)C2)CN1c1cccc(C(F)(F)F)n1 (centres unmarked) [Compound 95, 7-[1-(2,2-difluoroethyl)-1H-pyrazolo[3,4-b]pyrazin-6-yl]-2-[6-(trifluoromethyl)pyridin-2-yl]-2,7-diazaspiro[4.5]decan-3-one] | 10 to 50 µM |
| O=C1CC2(CCCN(c3cnc4cnn(CC(F)F)c4n3)C2)CN1c1cc(C(F)(F)F)ccn1 (centres unmarked) [Compound 97, 7-[1-(2,2-difluoroethyl)-1H-pyrazolo[3,4-b]pyrazin-6-yl]-2-[4-(trifluoromethyl)pyridin-2-yl]-2,7-diazaspiro[4.5]decan-3-one] | 50 to 100 µM |
| O=C1CC2(CCN(c3cccc(C(F)(F)F)n3)CC2)CN1c1cnc2cnn(CC(F)F)c2n1 [Compound 100, 2-[1-(2,2-difluoroethyl)-1H-pyrazolo[3,4-b]pyrazin-6-yl]-8-[6-(trifluoromethyl)pyridin-2-yl]-2,8-diazaspiro[4.5]decan-3-one] | 10 to 50 µM |
| O=C1CC2(CCN(c3cnc4cnn(CC(F)F)c4n3)CC2)CN1c1cccc(C(F)(F)F)n1 [Compound 101, 8-[1-(2,2-difluoroethyl)-1H-pyrazolo[3,4-b]pyrazin-6-yl]-2-[6-(trifluoromethyl)pyridin-2-yl]-2,8-diazaspiro[4.5]decan-3-one] | 10 to 50 µM |
| FC(F)(F)c1cc(N2CCCC3(C2)CN(c2cnc4cn(Cc5ccccc5)nc4n2)C3)ccn1 [Compound 103, 2-{2-benzyl-2H-pyrazolo[3,4-b]pyrazin-6-yl}-6-[2-(trifluoromethyl)pyridin-4-yl]-2,6-diazaspiro[3.5]nonane] | 10 to 50 µM |
| FC(F)(F)c1cc(N2CCCC3(C2)CN(c2cnc4cnn(Cc5ccccc5)c4n2)C3)ccn1 [Compound 104, 2-{1-benzyl-1H-pyrazolo[3,4-b]pyrazin-6-yl}-6-[2-(trifluoromethyl)pyridin-4-yl]-2,6-diazaspiro[3.5]nonane] | 10 to 50 µM |
| Cn1c(-c2ccccc2)c(C(=O)N2CCCC3(CC(Oc4cccnc4C(F)(F)F)C3)C2)c2nccnc21 (centres unmarked) [Compound 108, 6-{5-methyl-6-phenyl-5H-pyrrolo[2,3-b]pyrazine-7-carbonyl}-2-{[2-(trifluoromethyl)pyridin-3-yl]oxy}-6-azaspiro[3.5]nonane] | 10 to 50 µM |
| FC(F)Cn1ncc2ncc(NC3CCC4(CC3)CN(c3cccnc3C(F)(F)F)C4)nc21 [Compound 109, N-[1-(2,2-difluoroethyl)-1H-pyrazolo[3,4-b]pyrazin-6-yl]-2-[2-(trifluoromethyl)pyridin-3-yl]-2-azaspiro[3.5]nonan-7-amine] | 10 to 50 µM |
| O=C1CC2(CCN(c3cncc(C(F)(F)F)c3)CC2)CN1c1cnc2cnn(CC(F)F)c2n1 [Compound 111, 2-[1-(2,2-difluoroethyl)-1H-pyrazolo[3,4-b]pyrazin-6-yl]-8-[5-(trifluoromethyl)pyridin-3-yl]-2,8-diazaspiro[4.5]decan-3-one] | 10 to 50 µM |
| O=C1CC2(CCN(c3ccc(C(F)(F)F)cn3)CC2)CN1c1cnc2cnn(CC(F)F)c2n1 [Compound 112, 2-[1-(2,2-difluoroethyl)-1H-pyrazolo[3,4-b]pyrazin-6-yl]-8-[5-(trifluoromethyl)pyridin-2-yl]-2,8-diazaspiro[4.5]decan-3-one] | 10 to 50 µM |
| O=C1CC2(CCN(c3ncccc3C(F)(F)F)CC2)CN1c1cnc2cnn(CC(F)F)c2n1 [Compound 113, 2-[1-(2,2-difluoroethyl)-1H-pyrazolo[3,4-b]pyrazin-6-yl]-8-[3-(trifluoromethyl)pyridin-2-yl]-2,8-diazaspiro[4.5]decan-3-one] | > 100 µM |
| O=C1CCC2(CN(c3cnc4cnn(CC(F)F)c4n3)C2)CN1c1cccc(C(F)(F)F)n1 [Compound 114, 2-[1-(2,2-difluoroethyl)-1H-pyrazolo[3,4-b]pyrazin-6-yl]-6-[6-(trifluoromethyl)pyridin-2-yl]-2,6-diazaspiro[3.5]nonan-7-one] | 10 to 50 µM |
| COCCN1CCC2(CCN(c3cnc4cnn(CC(F)F)c4n3)CC2)C1=O [Compound 116, 8-[1-(2,2-difluoroethyl)-1H-pyrazolo[3,4-b]pyrazin-6-yl]-2-(2-methoxyethyl)-2,8-diazaspiro[4.5]decan-1-one] | 10 to 50 µM |

Now from value to compound:

| EC50 | SMILES |
| --- | --- |
| 10 to 50 µM | O=C1N(c2cccc(C(F)(F)F)n2)CCC12CCCN(c1cnc3cnn(CC(F)F)c3n1)C2 (centres unmarked) [Compound 96, 7-[1-(2,2-difluoroethyl)-1H-pyrazolo[3,4-b]pyrazin-6-yl]-2-[6-(trifluoromethyl)pyridin-2-yl]-2,7-diazaspiro[4.5]decan-1-one] |
| 50 to 100 µM | O=C1N(c2cc(C(F)(F)F)ccn2)CCC12CCCN(c1cnc3cnn(CC(F)F)c3n1)C2 (centres unmarked) [Compound 98, 7-[1-(2,2-difluoroethyl)-1H-pyrazolo[3,4-b]pyrazin-6-yl]-2-[4-(trifluoromethyl)pyridin-2-yl]-2,7-diazaspiro[4.5]decan-1-one] |
| < 10 µM | O=C1N(c2cnc3cnn(CC(F)F)c3n2)CCC12CCN(c1cccc(C(F)(F)F)n1)CC2 [Compound 99, 2-[1-(2,2-difluoroethyl)-1H-pyrazolo[3,4-b]pyrazin-6-yl]-8-[6-(trifluoromethyl)pyridin-2-yl]-2,8-diazaspiro[4.5]decan-1-one] |
| 10 to 50 µM | O=C1N(c2cccc(C(F)(F)F)n2)CCC12CCN(c1cnc3cnn(CC(F)F)c3n1)CC2 [Compound 102, 8-[1-(2,2-difluoroethyl)-1H-pyrazolo[3,4-b]pyrazin-6-yl]-2-[6-(trifluoromethyl)pyridin-2-yl]-2,8-diazaspiro[4.5]decan-1-one] |
| 10 to 50 µM | O=C1CC2(CCN(c3ccc(C(F)(F)F)nc3)CC2)CN1c1cnc2cnn(CC(F)F)c2n1 [Compound 110, 2-[1-(2,2-difluoroethyl)-1H-pyrazolo[3,4-b]pyrazin-6-yl]-8-[6-(trifluoromethyl)pyridin-3-yl]-2,8-diazaspiro[4.5]decan-3-one] |
| 10 to 50 µM | O=C1N(c2cccc(C(F)(F)F)n2)CCCC12CN(c1cnc3cnn(CC(F)F)c3n1)C2 [Compound 115, 2-[1-(2,2-difluoroethyl)-1H-pyrazolo[3,4-b]pyrazin-6-yl]-6-[6-(trifluoromethyl)pyridin-2-yl]-2,6-diazaspiro[3.5]nonan-5-one] |
| < 10 µM | FC(F)Cn1ncc2ncc(N3CC4(CCN(c5ccnc(C(F)(F)F)c5)CC4)C3)nc21 [Compound 117, 2-[1-(2,2-difluoroethyl)-1H-pyrazolo[3,4-b]pyrazin-6-yl]-7-[2-(trifluoromethyl)pyridin-4-yl]-2,7-diazaspiro[3.5]nonane] |
| 10 to 50 µM | O=C1N(c2cnc3cnn(CC(F)F)c3n2)CCC12CCN(c1ccnc(C(F)(F)F)c1)CC2 [Compound 118, 2-[1-(2,2-difluoroethyl)-1H-pyrazolo[3,4-b]pyrazin-6-yl]-8-[2-(trifluoromethyl)pyridin-4-yl]-2,8-diazaspiro[4.5]decan-1-one] |
| < 10 µM | O=C1N(c2cnc3cnn(CC(F)F)c3n2)CCC12CCN(c1ccc(C(F)(F)F)nc1)CC2 [Compound 119, 2-[1-(2,2-difluoroethyl)-1H-pyrazolo[3,4-b]pyrazin-6-yl]-8-[6-(trifluoromethyl)pyridin-3-yl]-2,8-diazaspiro[4.5]decan-1-one] |
